{"source": "patent US10159659B2", "about": "“Predicting response to cancer therapy” (BIONOMICS LIMITED, priority 2014, dated 2018)", "key": {"[1]": {"test_system": "tumour endothelial cells (activated) and normal endothelial cells (quiescent)", "assay": "Potency against activated versus quiescent endothelial cells", "type": "cell-based"}, "[2]": {"assay": "Maximum tolerated dose of BNC105P by intravenous infusion in patients", "type": "in vivo, human", "conditions": "intravenous infusion over 10 minutes, days 1 and 8 of 21 day cycle, with 10 mg oral everolimus daily", "protocol": "Patients in the BNC105P in combination with everolimus study group (the “combination arm”) were administered 10 mg oral everolimus daily. On days 1 and 8 of the 21 day cycle period, the patients were administered 16 mg/m^2 BNC105P, which had been determined to be the maximum tolerated dose, by intravenous infusion over a 10 minute period (FIG. 1). Treatment was continued until disease progressed, intolerable toxicity became apparent, or until consent was withdrawn. A control group of patients were administered with everolimus alone."}, "[3]": {"test_system": "Metastatic Clear Cell Renal Cell Carcinoma", "assay": "Disruptor-1 trial: BNC105P in combination with everolimus, progression free survival", "type": "in vivo, human", "conditions": "all patients; 10 mg oral everolimus daily, with or without 16 mg/m^2 BNC105P i.v. on days 1 and 8 of 21 day cycle; FIG. 2"}, "tubulin": {"test_system": "tubulin", "assay": "Tubulin polymerisation inhibition", "type": "biochemical"}}}
{"compound": "COc1ccc(/C=C\\c2cc(OC)c(OC)c(OC)c2)cc1O", "note": "[Combretastatin A4, reference compound]", "values": [{"measurement": "selectivity between activated (tumour) and quiescent (normal) endothelial cells (in words)", "setting": "[1]", "result": "equally potent against quiescent and activated endothelial cells"}]}
{"compound": "COc1cc(C(=O)c2c(C)oc3c(OP(=O)([O-])[O-])c(OC)ccc23)cc(OC)c1OC.[Na+].[Na+]", "note": "[BNC105P, disodium [6-methoxy-2-methyl-3-(3,4,5-trimethoxybenzoyl)-1-benzofuran-7-yl] phosphate]", "values": [{"measurement": "maximum tolerated dose", "setting": "[2]", "result": 16, "unit": "mg/m^2"}]}
{"compound": "CO[C@H]1C[C@@H]2CC[C@@H](C)[C@@](O)(O2)C(=O)C(=O)N2CCCC[C@H]2C(=O)O[C@H]([C@H](C)C[C@@H]2CC[C@@H](OCCO)[C@H](OC)C2)CC(=O)[C@H](C)/C=C(\\C)[C@@H](O)[C@@H](OC)C(=O)[C@H](C)C[C@H](C)/C=C/C=C/C=C/1C", "note": "[everolimus]", "values": [{"measurement": "patients free of disease progression at 6 months", "setting": "[3]", "result": 20, "unit": "patients"}]}
{"compound": "COc1cc(C(=O)c2c(C)oc3c(O)c(OC)ccc23)cc(OC)c1OC", "note": "[formula III, 2-methyl-7-hydroxy-3-(3,4,5-trimethoxybenzoyl)-6-methoxybenzofuran]", "values": [{"measurement": "tubulin polymerisation inhibition (in words)", "setting": "tubulin", "result": "potent tubulin polymerisation inhibitors"}, {"measurement": "selectivity between activated (tumour) and quiescent (normal) endothelial cells (in words)", "setting": "[1]", "result": "show selectivity towards tumor endothelial cells (activated) over normal endothelial cells (quiescent)"}]}
